In patent EP3046573B1, “AMYLIN ANALOGUES” (Zealand Pharma A/S, priority 2013, dated 2015):
Numbered stars: 1 amine (or outer) side, 2 acyl side, 3 side chain; on linkers, the order of the positions; unused ones are H or OH. Bridge positions count the residues as written; N and C are the ends. Square brackets hold non-standard residues; d marks the D form. Peptide text beside a SMILES is read from it. * marks the point of attachment. C20 diacid = O=C(O)CCCCCCCCCCCCCCCCCCC(=O)*; γGlu = O=C(O)[C@H](CCC(=O)[*:2])N[*:1]; Hyp = O=C(O)[C@@H]1C[C@@H](O)CN1; NMeI = CC[C@H](C)[C@H](NC)C(=O)O; Sar = CNCC(=O)O

Tests used:
[1] = target: T1, human amylin receptor 3 (hAMYR3) consisting of hCTR2 co-expressed with human Receptor Activity Modifying Protein 3 (hRAMP3) (Homo sapiens, UniProt O60896+P30988); assay: hAMYR3 assay: induction of cAMP (AlphaScreen cAMP Assay kit) in COS7 cells expressing hAMYR3; assay type: cell-based; conditions: cAMP induction in COS7 cells expressing hAMYR3; average of a minimum of 3 determinations; read-out: hAMY R3 EC50
T1 construct: expressed in transfected cells
T1 sequence (P30988 25-474): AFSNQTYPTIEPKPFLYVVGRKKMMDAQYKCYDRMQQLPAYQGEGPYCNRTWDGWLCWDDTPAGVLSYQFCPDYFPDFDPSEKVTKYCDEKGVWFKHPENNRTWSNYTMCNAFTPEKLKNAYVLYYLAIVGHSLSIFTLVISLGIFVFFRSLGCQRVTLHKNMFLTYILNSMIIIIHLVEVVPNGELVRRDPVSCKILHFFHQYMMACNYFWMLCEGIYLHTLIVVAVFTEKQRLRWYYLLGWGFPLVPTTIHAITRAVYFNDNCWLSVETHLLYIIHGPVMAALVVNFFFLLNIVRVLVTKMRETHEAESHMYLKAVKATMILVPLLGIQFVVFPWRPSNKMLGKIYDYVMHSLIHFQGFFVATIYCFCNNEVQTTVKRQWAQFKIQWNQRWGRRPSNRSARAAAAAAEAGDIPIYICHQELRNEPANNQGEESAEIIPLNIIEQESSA
T1 sequence (O60896 24-148 partner): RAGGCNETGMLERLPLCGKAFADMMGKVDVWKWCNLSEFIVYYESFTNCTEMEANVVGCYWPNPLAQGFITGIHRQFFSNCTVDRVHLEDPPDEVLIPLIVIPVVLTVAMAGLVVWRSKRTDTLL
In short: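 Stable COS7 clone co-expressing hCTR2 and hRAMP3, stimulated 15 min at 37° C with increasing peptide in Tyrode buffer pH 7.4 with 100 µM IBMX and 0.1% casein. cAMP measured by AlphaScreen after lysis; EC50 and % efficacy versus pramlintide from 4PL fit.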

[2] = target: T2, human calcitonin receptor (hCTR2) (Homo sapiens, UniProt P30988); assay: hCTR2 assay: induction of cAMP (AlphaScreen cAMP Assay kit) in COS7 cells expressing hCTR2; assay type: cell-based; conditions: cAMP induction in COS7 cells expressing hCTR2; average of a minimum of 3 determinations; read-out: hCTR2 EC50
T2 construct: expressed in transfected cells
T2 sequence (P30988 25-474): T1 sequence (P30988 25-474)
In short: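 Functional agonism is measured as cAMP accumulation in a COS7 line stably transfected with hCTR2, lacking endogenous RAMPs. Peptides act for 15 min at 37° C with IBMX present, and curves are fitted with a 4-parameter logistic model.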

[3] = Solubility assessment (turbidity absorbance at 325 nm); assay type: physicochemical; conditions: stock 2 mg/ml diluted 1:1, ambient temperature (typically 25°C), n=1; for Solubility, Acetate buffer pH 4: 100 mM acetate buffer pH 4.0; for Solubility, Acetate buffer pH 5: 100 mM acetate buffer pH 5.0; for Solubility, Histidine buffer pH 6: 100 mM histidine buffer pH 6.0; for Solubility, Histidine buffer pH 7: 100 mM histidine buffer pH 7.0; for Solubility, Phosphate buffer pH 6: 100 mM phosphate buffer pH 6.0; for Solubility, Phosphate buffer pH 7: 100 mM phosphate buffer pH 7.0; for Solubility, Phosphate buffer pH 7.5: 100 mM phosphate buffer pH7.5
In short: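 Peptide stock (2 mg/ml) in water acidified to pH 2.5 with HCl was diluted 1:1 into 100 mM acetate (pH 4.0, 5.0), histidine (pH 6.0, 7.0) or phosphate (pH 6.0, 7.0, 7.5) buffer. A280 and A325 were read at about 25°C, n=1. A325 ≤ 0.02 meant solubility ≥ 1 mg/ml.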

Compound	EC50 [1]	EC50 [2]	Solubility, Acetate buffer pH 4 [3]	Solubility, Acetate buffer pH 5 [3]	Solubility, Histidine buffer pH 6 [3]	Solubility, Histidine buffer pH 7 [3]	Solubility, Phosphate buffer pH 6 [3]	Solubility, Phosphate buffer pH 7 [3]	Solubility, Phosphate buffer pH 7.5 [3]
CC[C@H](C)[C@@H](C(=O)N[C@@H](CC(C)C)C(=O)N[C@@H](CO)C(=O)N[C@@H](CO)C(=O)N[C@H](C(=O)N[C@@H](CC(=O)O)C(=O)N[C@H](C(=O)NCC(=O)N[C@@H](CO)C(=O)N[C@@H](CC(=O)O)C(=O)N[C@H](C(=O)N1CCC[C@H]1C(N)=O)[C@@H](C)O)C(C)C)[C@@H](C)O)N(C)C(=O)[C@H](C)NC(=O)CN(C)C(=O)[C@H](Cc1ccccc1)NC(=O)[C@H](CO)NC(=O)[C@H](CO)NC(=O)[C@H](CCCNC(=N)N)NC(=O)[C@H](Cc1c[nH]cn1)NC(=O)[C@H](CC(C)C)NC(=O)[C@H](Cc1ccccc1)NC(=O)[C@H](CCC(=O)O)NC(=O)[C@H](C)NC(=O)[C@H](CC(C)C)NC(=O)[C@H](CCCNC(=N)N)NC(=O)[C@H](CC(=O)O)NC(=O)[C@@H](NC(=O)[C@H](C)NC(=O)[C@@H]1CSSC[C@H](NC(=O)[C@H](Cc2c[nH]c3ccccc23)NC(=O)CC[C@H](NC(=O)CCCCCCCCCCCCCCCCCCC(=O)O)C(=O)O)C(=O)NCC(=O)N[C@@H]([C@@H](C)O)C(=O)N[C@@H](C)C(=O)N[C@@H]([C@@H](C)O)C(=O)N1)[C@@H](C)O [Compound 157, [19CD]-isoGlu-WC()GTATC()ATDRLAEFLHRSSF-Gly(Me)-A-Ile(Me)-LSSTDVGSDTP-NH2] ({C20 diacid-γGlu}-WCGTATCATDRLAEFLHRSSF[Sar]A[NMeI]LSSTDVGSDTP-NH2; disulfide 2-7)	0.16 nM	0.072 nM	II (II indicates solubility ≤ 1 mg/ml)	SS (SS indicates solubility ≥ 1mg/ml)	SS (SS indicates solubility ≥ 1mg/ml)	SS (SS indicates solubility ≥ 1mg/ml)	SS (SS indicates solubility ≥ 1mg/ml)	SS (SS indicates solubility ≥ 1mg/ml)	SS (SS indicates solubility ≥ 1mg/ml)
CC[C@H](C)[C@@H](C(=O)N[C@@H](CC(C)C)C(=O)N[C@@H](CO)C(=O)N[C@@H](CO)C(=O)N[C@H](C(=O)N[C@@H](CCC(=O)O)C(=O)N[C@H](C(=O)NCC(=O)N[C@@H](CO)C(=O)N[C@@H](CCC(=O)O)C(=O)N[C@H](C(=O)N1CCC[C@H]1C(N)=O)[C@@H](C)O)C(C)C)[C@@H](C)O)N(C)C(=O)[C@H](C)NC(=O)CN(C)C(=O)[C@H](Cc1ccccc1)NC(=O)[C@H](CO)NC(=O)[C@H](CO)NC(=O)[C@H](CO)NC(=O)[C@H](CO)NC(=O)[C@H](CCCNC(=N)N)NC(=O)[C@H](Cc1c[nH]cn1)NC(=O)[C@H](CC(C)C)NC(=O)[C@H](Cc1ccccc1)NC(=O)[C@H](CCC(=O)O)NC(=O)[C@H](C)NC(=O)[C@H](CC(C)C)NC(=O)[C@H](CCCNC(=N)N)NC(=O)CNC(=O)[C@@H](NC(=O)[C@H](C)NC(=O)[C@@H]1CSSC[C@H](NC(=O)[C@H](CCCNC(=N)N)NC(=O)CC[C@H](NC(=O)CCCCCCCCCCCCCCCCCCC(=O)O)C(=O)O)C(=O)N[C@@H](CC(N)=O)C(=O)N[C@@H]([C@@H](C)O)C(=O)N[C@@H](C)C(=O)N[C@@H]([C@@H](C)O)C(=O)N1)[C@@H](C)O [Compound 122, [19CD]-isoGlu-RC()NTATC()ATGRLAEFLHRSSSSF-Gly(Me)-A-Ile(Me)-LSSTEVGSETP-NH2] ({C20 diacid-γGlu}-RCNTATCATGRLAEFLHRSSSSF[Sar]A[NMeI]LSSTEVGSETP-NH2; disulfide 2-7)	0.2 nM	0.11 nM	SS (SS indicates solubility ≥ 1mg/ml)	SS (SS indicates solubility ≥ 1mg/ml)	SS (SS indicates solubility ≥ 1mg/ml)	SS (SS indicates solubility ≥ 1mg/ml)	SS (SS indicates solubility ≥ 1mg/ml)	SS (SS indicates solubility ≥ 1mg/ml)	SS (SS indicates solubility ≥ 1mg/ml)
CC[C@H](C)[C@@H](C(=O)N[C@@H](CC(C)C)C(=O)N[C@@H](CO)C(=O)N[C@@H](CO)C(=O)N[C@H](C(=O)N[C@@H](CCC(=O)O)C(=O)N[C@H](C(=O)NCC(=O)N[C@@H](CO)C(=O)N[C@@H](CCC(=O)O)C(=O)N[C@H](C(=O)N1C[C@H](O)C[C@H]1C(N)=O)[C@@H](C)O)C(C)C)[C@@H](C)O)N(C)C(=O)CN(C)C(=O)[C@H](Cc1ccccc1)NC(=O)[C@H](CO)NC(=O)[C@H](CO)NC(=O)[C@H](CO)NC(=O)[C@H](CO)NC(=O)[C@H](CCCNC(=N)N)NC(=O)[C@H](Cc1c[nH]cn1)NC(=O)[C@H](CC(C)C)NC(=O)[C@H](Cc1ccccc1)NC(=O)[C@H](CCC(=O)O)NC(=O)[C@H](C)NC(=O)[C@H](CC(C)C)NC(=O)[C@H](CCCNC(=N)N)NC(=O)[C@H](CCC(=O)O)NC(=O)[C@@H](NC(=O)[C@H](C)NC(=O)[C@@H]1CSSC[C@H](NC(=O)[C@H](CCCCN)NC(=O)[C@H](CCCCN)NC(=O)CC[C@H](NC(=O)CCCCCCCCCCCCCCCCCCC(=O)O)C(=O)O)C(=O)N[C@@H](CCC(=O)O)C(=O)N[C@@H]([C@@H](C)O)C(=O)N[C@@H](C)C(=O)N[C@@H]([C@@H](C)O)C(=O)N1)[C@@H](C)O [Compound 169, [19CD]-isoGlu-KKC()ETATC()ATERLAEFLHRSSSSF-Gly(Me)-Ile(Me)-LSSTEVGSET-Hyp-NH2] ({C20 diacid-γGlu}-KKCETATCATERLAEFLHRSSSSF[Sar][NMeI]LSSTEVGSET[Hyp]-NH2; disulfide 3-8)	0.64 nM	3.5 nM							
CC[C@H](C)[C@@H](C(=O)N[C@@H](CC(C)C)C(=O)N[C@@H](CO)C(=O)N[C@@H](CO)C(=O)N[C@H](C(=O)N[C@@H](CC(N)=O)C(=O)N[C@H](C(=O)NCC(=O)N[C@@H](CO)C(=O)N[C@@H](CC(N)=O)C(=O)N[C@H](C(=O)N1C[C@H](O)C[C@H]1C(N)=O)[C@@H](C)O)C(C)C)[C@@H](C)O)N(C)C(=O)CN(C)C(=O)[C@H](Cc1ccccc1)NC(=O)[C@H](CC(N)=O)NC(=O)[C@H](CC(N)=O)NC(=O)[C@H](CO)NC(=O)[C@H](CO)NC(=O)[C@H](CCCNC(=N)N)NC(=O)[C@H](Cc1c[nH]cn1)NC(=O)[C@H](CC(C)C)NC(=O)[C@H](Cc1ccccc1)NC(=O)[C@H](CCC(=O)O)NC(=O)[C@H](C)NC(=O)[C@H](CC(C)C)NC(=O)[C@H](CCCNC(=N)N)NC(=O)[C@H](CCC(N)=O)NC(=O)[C@@H](NC(=O)[C@H](C)NC(=O)[C@@H]1CSSC[C@H](NC(=O)[C@H](CCCNC(=N)N)NC(=O)CC[C@H](NC(=O)CCCCCCCCCCCCCCCCCCC(=O)O)C(=O)O)C(=O)N[C@@H](CC(N)=O)C(=O)N[C@@H]([C@@H](C)O)C(=O)N[C@@H](C)C(=O)N[C@@H]([C@@H](C)O)C(=O)N1)[C@@H](C)O [Compound 106, [19CD]-isoGlu-RC()NTATC()ATQRLAEFLHRSSNNF-Gly(Me)-Ile(Me)-LSSTNVGSNT-Hyp-NH2] ({C20 diacid-γGlu}-RCNTATCATQRLAEFLHRSSNNF[Sar][NMeI]LSSTNVGSNT[Hyp]-NH2; disulfide 2-7)	0.14 nM	0.12 nM							
